Results reported in PubChem BioAssay AID1996.
≈ marks a conversion by molar mass, not a printed value. Non-standard residues stand in square brackets, D forms with d. Residues, ends and D or L forms follow the SMILES beside them. ξ: configuration not given here. *: point of attachment. Tos = Cc1ccc(S(=O)(=O)*)cc1; ξP = O=C(O)C1CCCN1

settings: buffer; pH 7.4; 200.0 µM

Question: With `CCOC(=O)c1c(CC(C)C)csc1N` as the compound, how does the solubility kinetic read?
Answer: 2.1 µg/mL (≈ 9.24 µM)

Question: Which solubility kinetic does the source give for `Brc1ccc(-c2csc(N3CCCCCC3)n2)cc1` here?
Answer: 1.2 µg/mL (≈ 3.56 µM)

Question: For `CN1C(=S)SC2CS(=O)(=O)CC21C` (stereo not given), which solubility kinetic is on record?
Answer: > 35.6 µg/mL

Question: For `COc1ccccc1C(=O)COC(=O)c1ccc(Cl)nc1`, which solubility kinetic is on record?
Answer: 44.6 µg/mL (≈ 146 µM)

Question: With `COc1ccccc1OCCNC(=O)CN1C(=O)NC2(CCCCC2)C1=O` as the compound, how does the solubility kinetic read?
Answer: > 56.3 µg/mL

Question: For `COc1ccc(C2C(C#N)=C(N)Oc3cc(N)ccc32)cc1` (stereo not given), which solubility kinetic is on record?
Answer: 27.4 µg/mL (≈ 93.4 µM)

Question: With `Cc1c(Cl)cccc1NC(=O)CNC(=O)c1ccco1` as the compound, how does the solubility kinetic read?
Answer: 38.2 µg/mL (≈ 130 µM)

Question: Which solubility kinetic does the source give for `CC(=O)c1ccccc1NC(=O)COC(=O)c1cc(C)oc1C` here?
Answer: 2.2 µg/mL (≈ 6.98 µM)

Question: For `CCN(CC(=O)Nc1c(F)cccc1F)C(=O)CCCc1c[nH]c2ccccc12`, which solubility kinetic is on record?
Answer: 7.4 µg/mL (≈ 18.5 µM)

Question: For `NC1=NC(=O)/C(=C/c2ccc(OCC(=O)O)cc2)S1`, which solubility kinetic is on record?
Answer: > 41.7 µg/mL

Question: Which solubility kinetic does the source give for `O=C(COc1ncnc2cc(Cl)ccc12)c1ccc2c(c1)OCCO2` here?
Answer: < 0.4 µg/mL

Question: Which solubility kinetic does the source give for `CSc1ccccc1C(=O)NCCOc1ccccc1C` here?
Answer: > 45.2 µg/mL

Question: For `CCn1cnc2c(oc3ccccc32)c1=O`, which solubility kinetic is on record?
Answer: 31.9 µg/mL (≈ 149 µM)

Question: With `Cc1cccc(CC(=O)NCCN2CCOCC2)c1` as the compound, how does the solubility kinetic read?
Answer: > 39.4 µg/mL

Question: With `COc1ccc(NS(=O)(=O)c2cn(C)cn2)cc1Cl` as the compound, how does the solubility kinetic read?
Answer: 17 µg/mL (≈ 56.3 µM)

Question: For `COc1ccccc1C1CCN(Cc2ccccc2Cl)CC1`, which solubility kinetic is on record?
Answer: 3.6 µg/mL (≈ 11.4 µM)

Question: Which solubility kinetic does the source give for `CN1CCN(CCCCOc2cccc3ccccc23)CC1.Cl` here?
Answer: > 50.2 µg/mL

Question: For `Cc1ccc([N+](=O)[O-])cc1NC(=O)CNC1CCCCC1`, which solubility kinetic is on record?
Answer: 39 µg/mL (≈ 134 µM)

Question: Which solubility kinetic does the source give for `CN(C)S(=O)(=O)c1ccc(Cl)c(NC(=O)CNC2(C)CCS(=O)(=O)C2)c1` (stereo not given) here?
Answer: > 63.6 µg/mL

Question: For `Cc1ccc(C(=O)O/N=C(\c2ccccc2)c2ccncc2)cc1`, which solubility kinetic is on record?
Answer: 0.6 µg/mL (≈ 1.9 µM)

Question: For `CCOC(=O)c1ccccc1NC(=S)N1CCC(C(N)=O)CC1`, which solubility kinetic is on record?
Answer: 41.6 µg/mL (≈ 124 µM)

Question: Which solubility kinetic does the source give for `O=C(c1ccc(Cn2cc([N+](=O)[O-])cn2)o1)N1CCCC1` here?
Answer: > 43.5 µg/mL

Question: For `Cc1cc(C)c(NC(=O)COC(=O)C2CCCCC2)c(C)c1`, which solubility kinetic is on record?
Answer: 5.6 µg/mL (≈ 18.5 µM)

Question: With `Cc1cccc(C)c1N1CCN(C(=O)Cn2cncn2)CC1` as the compound, how does the solubility kinetic read?
Answer: > 44.9 µg/mL

Question: With `CN=C1C([N+](=O)[O-])=CC=C2C1=NC1(CCCCC1)N2O` as the compound, how does the solubility kinetic read?
Answer: 10.8 µg/mL (≈ 39.1 µM)

Question: With `O=C(COC(=O)C1CCCCC1)Nc1cccc(F)c1` as the compound, how does the solubility kinetic read?
Answer: > 41.9 µg/mL

Question: With `Cc1onc(-c2ccccc2)c1NC(=O)N(Cc1ccccc1)C(C)C` as the compound, how does the solubility kinetic read?
Answer: 22.7 µg/mL (≈ 65 µM)

Question: With `COc1ccc(NC(=S)N2CCN(S(C)(=O)=O)CC2)cc1` as the compound, how does the solubility kinetic read?
Answer: > 49.4 µg/mL

Question: Which solubility kinetic does the source give for `O=C(O)C1C2C=CC(C2)C1C(=O)Nc1ccc(Cl)c(Cl)c1` (stereo not given) here?
Answer: 13.4 µg/mL (≈ 41.1 µM)

Question: Which solubility kinetic does the source give for `CC1CCCCN1C(=O)c1cc(-c2ccc3c(c2)OCO3)on1` (stereo not given) here?
Answer: 39.9 µg/mL (≈ 127 µM)

Question: With `COc1ccc(NC(=O)c2ccc(C)cc2)cc1` as the compound, how does the solubility kinetic read?
Answer: 5.4 µg/mL (≈ 22.4 µM)

Question: Which solubility kinetic does the source give for `CCn1c(CCc2ccccc2)nc2ccccc21.Cl` here?
Answer: 28.4 µg/mL

Question: Which solubility kinetic does the source give for `COc1ccc(Cl)cc1C(=O)OCC(=O)c1ccc[nH]1` here?
Answer: 8.4 µg/mL (≈ 28.6 µM)

Question: With `CCCC(=O)Oc1cccc(C2NC(=O)c3ccccc3O2)c1` (stereo not given) as the compound, how does the solubility kinetic read?
Answer: 18.8 µg/mL (≈ 60.4 µM)

Question: With `CC(=O)Nc1ccc(N/C=C/C(=O)c2ccccc2)cc1` as the compound, how does the solubility kinetic read?
Answer: 4.1 µg/mL (≈ 14.6 µM)

Question: Which solubility kinetic does the source give for `Cc1ccc(Cl)cc1NC(=O)C1CC1c1ccccc1` (stereo not given) here?
Answer: < 0.6 µg/mL

Question: For `Cc1cc(S(=O)(=O)NCc2ccc(N3CCN(C)CC3)cc2)c(C)s1`, which solubility kinetic is on record?
Answer: 15.8 µg/mL (≈ 41.6 µM)

Question: For `CCN(CC)S(=O)(=O)c1ccc(N2CCOCC2)c(NC(=O)c2ccc(=O)[nH]c2)c1`, which solubility kinetic is on record?
Answer: > 65.2 µg/mL

Question: For `CN1CCN(C(=O)Nc2ccccc2)CC1.O=C(O)C(=O)O`, which solubility kinetic is on record?
Answer: > 46.4 µg/mL

Question: Which solubility kinetic does the source give for `CC(C)(C)NC(=O)C1c2ccccc2Oc2ccccc21` here?
Answer: 1.7 µg/mL (≈ 6.04 µM)

Question: With `COc1cccc(C(=O)OCC(=O)NCC2CCCO2)c1` (stereo not given) as the compound, how does the solubility kinetic read?
Answer: > 44 µg/mL

Question: Which solubility kinetic does the source give for `Cc1[nH]c2ccccc2c1C(=O)C(=O)NCCOc1ccccc1` here?
Answer: 2.2 µg/mL (≈ 6.82 µM)

Question: For `O=C(NCCCN1CCCC1=O)Nc1ccc(Cl)cc1Cl`, which solubility kinetic is on record?
Answer: > 49.5 µg/mL

Question: With `COc1cccc(NC(=O)C2CC(=O)N(Cc3ccc(C)cc3)C2)c1` (stereo not given) as the compound, how does the solubility kinetic read?
Answer: 9.3 µg/mL (≈ 27.5 µM)

Question: For `CC(NC(=O)CCl)c1ccccc1Br` (stereo not given), which solubility kinetic is on record?
Answer: > 41.5 µg/mL

Question: For `OCc1ccccc1CN1CCCCCC1`, which solubility kinetic is on record?
Answer: 28.8 µg/mL (≈ 131 µM)

Question: With `O=C(NC1CCCC1)c1cc(-c2ccccc2Cl)on1` as the compound, how does the solubility kinetic read?
Answer: 2.2 µg/mL (≈ 7.57 µM)

Question: With `COc1ccccc1CNC(=O)C1CCCC1` as the compound, how does the solubility kinetic read?
Answer: > 35 µg/mL

Question: With `Cc1c(Cl)ccc(S(=O)(=O)NCCN2CCOCC2)c1Cl` as the compound, how does the solubility kinetic read?
Answer: > 53 µg/mL

Question: Which solubility kinetic does the source give for `O=C(Nc1ccc(Cl)cc1)C1CCCC1` here?
Answer: 15.8 µg/mL (≈ 70.6 µM)

Question: Which solubility kinetic does the source give for `Cc1nonc1CC(=O)N1CCCC(C(=O)c2ccc(Cl)cc2)C1` (stereo not given) here?
Answer: 48.2 µg/mL (≈ 139 µM)

Question: Which solubility kinetic does the source give for `CCCCNc1c(N)n(CCC)c(=O)[nH]c1=O` here?
Answer: > 36 µg/mL

Question: With `CC(C)(C)c1cc2ncnc(N3CCCCC3)c2s1` as the compound, how does the solubility kinetic read?
Answer: 10.5 µg/mL (≈ 38.1 µM)

Question: Which solubility kinetic does the source give for `O=C(NNC(=O)c1ccc([N+](=O)[O-])cc1)c1ccc(NS(=O)(=O)c2cccs2)cc1` here?
Answer: > 67 µg/mL

Question: With `CCOc1ccc2nc(SCC(=O)NCc3ccccc3)[nH]c2c1` as the compound, how does the solubility kinetic read?
Answer: 44.3 µg/mL (≈ 130 µM)

Question: Which solubility kinetic does the source give for `O=C(CCNC(=O)c1ccccc1Cl)Nc1ccc(S(=O)(=O)Nc2nccs2)cc1` here?
Answer: > 69.7 µg/mL

Question: Which solubility kinetic does the source give for `CCc1ccccc1NCc1cc(=O)oc2cc(C)ccc12` here?
Answer: 0.7 µg/mL (≈ 2.39 µM)

Question: For `Cc1ccccc1NC(=O)c1ccc2nccnc2c1`, which solubility kinetic is on record?
Answer: 37.3 µg/mL (≈ 142 µM)

Question: For `CCSc1nc2sc3c(c2c(=O)n1-c1ccc(C)cc1)CCN(C)C3`, which solubility kinetic is on record?
Answer: 35.6 µg/mL (≈ 95.8 µM)

Question: With `C/C=C/c1ccc(OCCCCN2CCC(C)CC2)c(OC)c1` as the compound, how does the solubility kinetic read?
Answer: 33.9 µg/mL (≈ 107 µM)

Question: With `Cc1ccc(S(=O)(=O)NCC(=O)OCC(=O)N2CC(=O)Nc3ccccc32)cc1` as the compound, how does the solubility kinetic read?
Answer: > 62.6 µg/mL

Question: Which solubility kinetic does the source give for `COc1cccc(CN2CCN(c3ncccn3)CC2)c1OC` here?
Answer: 35.7 µg/mL (≈ 114 µM)

Question: Which solubility kinetic does the source give for `O=C(Nc1cc(S(=O)(=O)Nc2ccccc2F)ccc1Cl)c1ccc(F)cc1F` here?
Answer: 2.5 µg/mL (≈ 5.67 µM)

Question: For `Cc1ccc(S(=O)(=O)NCC(=O)N2CCCC2C(=O)O)cc1` (stereo not drawn) (Tos-Gly-[ξP]-OH), which solubility kinetic is on record?
Answer: > 49 µg/mL

Question: Which solubility kinetic does the source give for `ClC1(Cl)CC1CSc1nc2ccccc2[nH]1` (stereo not given) here?
Answer: 39.8 µg/mL (≈ 146 µM)

Question: Which solubility kinetic does the source give for `O=C1CN(c2ccccc2)C(=S)N1c1ccccc1.[Na+]` here?
Answer: 7.4 µg/mL

Question: For `CN1C(CC(=O)Nc2ccc(Cl)cc2Cl)c2ccccc2CC1(C)C` (stereo not given), which solubility kinetic is on record?
Answer: 10 µg/mL (≈ 26.5 µM)

Question: Which solubility kinetic does the source give for `N#Cc1c(SCC(=O)O)nc(N2CCOCC2)c2c1CCCC2` here?
Answer: > 50 µg/mL

Question: With `O=C(NCc1ccc2c(c1)OCO2)c1ccccc1` as the compound, how does the solubility kinetic read?
Answer: 38 µg/mL (≈ 149 µM)

Question: Which solubility kinetic does the source give for `Fc1cccc(CSc2nc3ncc(Cl)cc3[nH]2)c1` here?
Answer: 2.6 µg/mL (≈ 8.85 µM)

Question: Which solubility kinetic does the source give for `O=C(CSCc1c(F)cccc1Cl)NCCSCc1ccco1` here?
Answer: 36.8 µg/mL (≈ 98.4 µM)

Question: With `Cc1cccc(N2CC(C(=O)Nc3ccc(N4CCOCC4)cc3)CC2=O)c1C` (stereo not given) as the compound, how does the solubility kinetic read?
Answer: > 59 µg/mL

Question: With `O=C(/C=C/c1cccs1)NC1CC1` as the compound, how does the solubility kinetic read?
Answer: > 29 µg/mL

Question: With `Cc1cccc(CN(C(=S)Nc2c(C)cccc2C)c2cccnc2)c1` as the compound, how does the solubility kinetic read?
Answer: 16.9 µg/mL (≈ 46.7 µM)

Question: With `COc1ccc(-c2csc(Nc3ccccn3)n2)cc1OC` as the compound, how does the solubility kinetic read?
Answer: 5.5 µg/mL (≈ 17.6 µM)

Question: For `COC(=O)C1CCN(C(=O)COc2ccc(S(=O)(=O)N3CCOCC3)cc2Cl)CC1`, which solubility kinetic is on record?
Answer: > 69.1 µg/mL

Question: With `O=C(NC(=S)Nc1ccccc1Br)C1CCCCC1` as the compound, how does the solubility kinetic read?
Answer: 2.2 µg/mL (≈ 6.45 µM)

Question: With `Cc1cc(NC(=O)COc2cccc([N+](=O)[O-])c2)no1` as the compound, how does the solubility kinetic read?
Answer: 2.9 µg/mL (≈ 10.5 µM)

Question: With `CCC1(C)Cc2ccccc2-c2nc(NCCCO)n(C)c(=O)c21` (stereo not given) as the compound, how does the solubility kinetic read?
Answer: > 49.1 µg/mL

Question: With `COc1ccc(N2C(=O)/C(=C/c3cccs3)C(=O)NC2=S)cc1` as the compound, how does the solubility kinetic read?
Answer: 31.4 µg/mL (≈ 91.2 µM)

Question: With `O=C(NCCc1c[nH]c2ccccc12)c1cnccn1` as the compound, how does the solubility kinetic read?
Answer: > 39.9 µg/mL

Question: Which solubility kinetic does the source give for `COc1cccc(CNC(=O)Cn2nc(C)c([N+](=O)[O-])c2C)c1` here?
Answer: > 47.7 µg/mL

Question: With `O=C(C(=O)N1CCN(c2ccc(F)cc2)CC1)c1c[nH]c2ccccc12` as the compound, how does the solubility kinetic read?
Answer: 6.9 µg/mL (≈ 19.6 µM)

Question: With `N/C(CS(=O)(=O)c1ccccc1)=N\OC(=O)c1ccc(F)cc1` as the compound, how does the solubility kinetic read?
Answer: 8.8 µg/mL (≈ 26.2 µM)

Question: Which solubility kinetic does the source give for `Cc1cccc(NC(=O)CCCN2C(=S)NC(C)(C)CC2C)c1C` (stereo not given) here?
Answer: > 52.1 µg/mL
